Here are results for five molecules from US20260248763A1 (BIO GENUINE (SHANGHAI) BIOTECH CO., LTD, priority 2023, published 2026).

One series addresses T1, OTR (Homo sapiens, UniProt P30559).
T1 construct: expressed in transfected cells; host or cells: OTR/HEK293 stably transfected cell line
T1 sequence (P30559 1-389): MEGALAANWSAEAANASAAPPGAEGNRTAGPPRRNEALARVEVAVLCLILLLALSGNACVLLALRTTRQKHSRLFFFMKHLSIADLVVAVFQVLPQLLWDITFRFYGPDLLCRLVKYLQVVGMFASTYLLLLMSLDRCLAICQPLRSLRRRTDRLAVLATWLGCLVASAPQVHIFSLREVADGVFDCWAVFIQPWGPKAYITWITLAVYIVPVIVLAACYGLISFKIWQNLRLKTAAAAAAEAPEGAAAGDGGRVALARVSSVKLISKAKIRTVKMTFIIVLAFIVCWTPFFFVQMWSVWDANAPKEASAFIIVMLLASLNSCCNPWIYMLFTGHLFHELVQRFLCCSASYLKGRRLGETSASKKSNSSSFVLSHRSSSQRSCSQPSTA
As to the kind of experiment: Ca2+ mobilization in cells stably expressing OTR (FLIPR, antagonist mode). The format is cell-based. The following applies: OTR/HEK293 stably transfected cell line. A digest of the protocol:
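Antagonist mode: test compounds in 10-point 3-fold series were added on FLIPR to Fluo-4-loaded HEK293 cells stably expressing OTR, followed by reference agonist at its EC80, determined beforehand. The Max-Min calcium fluorescence response was fitted in Prism.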
(Calcium assays in cells follow changes in intracellular calcium, usually with a dye or a luminescent sensor.)

Series [1] in a line: Pharmacokinetic determination in SD rats. Format: in vivo. The following applies: rat, female SD rats, plasma; for AUC(0-t): read-out: Area under the curve AUC0-t; for clearance: read-out: Clearance Cl; for half-life: read-out: Half-life T1/2 (converted). The method, then: Test Example 3: Pharmacokinetic Determination in SD Rats
In this study, female SD rats were selected as test animals. The LC/MS/MS method was used to quantitatively determine the plasma drug concentrations of the test compounds at different time points after intravenous injection (2 mg/kg) or oral administration (5 mg/kg) in rats, so as to evaluate the pharmacokinetic profile of the test drugs in rats.
The example compounds of the present disclosure, made in house.
SD rats (female, 180-220 g, 6-8 weeks old, purchased from Beijing Vital River Laboratory Animal Technology Co., Ltd., with animal production license number SCXK (Beijing) 2021-0006).
Vehicle for intravenous administration: 5% DMSO+10% Solutol+85% Saline.
Vehicle for oral administration: 5% DMSO+95% PEG400.
The test compound, formulated as a clear solution or suspension, was administered to overnight-fasted SD rats via tail vein injection or oral gavage. For intravenous administration, blood samples (0.25 mL) were collected via jugular vein puncture at pre-dose (0 h) and 0.083, 0.25, 0.5, 1, 2, 4, 6, 8, and 24 h post-dose. The samples were placed into sodium heparin anticoagulant tubes, and the mixture was vortexed thoroughly and centrifuged at 6,000 rpm for 3 minutes at 4° C. For oral gavage, blood samples were collected via jugular vein puncture at pre-dose (0 h) and 0.083, 0.25, 1, 2, 4, 6, 8, and 24 h post-dose. The samples were placed into sodium heparin anticoagulant tubes, and the mixture was vortexed thoroughly and centrifuged at 6,000 rpm for 3 minutes. Plasma drug concentrations were determined using the LC-MS/MS method, and the relevant pharmacokinetic parameters were calculated using the non-compartmental model with linear-log trapezoidal method in Phoenix WinNonlin 8.2.0 pharmacokinetic software.

Where two headings read alike, the source gives them in different places.

In the case of `CON=C1CC(CO)N(C(=O)c2ccc(-c3cccc(C#N)c3C)c3c2OCO3)C1` (single isomer, unassigned) [Example C0099], the IC50 on OTR worked out at 17.5 nM.
In the case of `CO/N=C1/C[C@@H]([C@@H](C)O)N(C(=O)c2ccc(-c3cccc(C#N)c3C)cc2)C1` (single isomer, unassigned) [Example C0112], the half-inhibitory concentration (IC50) against OTR was 7.51 nM.
For the molecule `CO/N=C1/C[C@@H](CO)N(C(=O)c2ccc(-c3cccc(C#N)c3Cl)cc2)C1` [Example A0203, 2-Chloro-3-(4-[(2S, 4Z)-2-(hydroxymethyl)-4-(methoxyimino)pyrrolidine-1-carbonyl]phenyl)benzonitrile], on OTR, the IC50 stood at 20.8 nM. In series [1] (2 mg/kg, IV (2 mpk)), the AUC(0-t) turned out to be 7160 ng·h/mL, the clearance worked out at 4.66 mL/min/kg and the half-life is 5.23 h. In addition, in series [1] (5 mg/kg, PO (5 mpk)), the AUC(0-t) was 16000 ng·h/mL and the half-life was 5.97 h.
As to `CO/N=C1/C[C@@H](CO)N(C(=O)c2ccc(-c3cccc(C#N)c3C)cc2)C1` [Example C0058, (S, Z)-4′-(2-(Hydroxymethyl)-4-(methoxyimino)pyrrolidine-1-carbonyl)-2-methyl-[1,1′-biphenyl]-3-carbonitrile], half-maximal inhibition against OTR (IC50) was put at 17.7 nM. Further, in series [1] (2 mg/kg, IV (2 mpk)), the AUC(0-t) was 4640 ng·h/mL, the clearance turned out to be 7.4 mL/min/kg and the half-life was 3 h. In series [1] (5 mg/kg, PO (5 mpk)), the AUC(0-t) was 11400 ng·h/mL and the half-life is 3.11 h.
In turn, `CO/N=C1/C[C@@H](CO)N(C(=O)c2ccc(-c3cc(F)cc(C#N)c3C)c3c2OCCO3)C1` [Example C0152, (S,Z)-5-Fluoro-3-(8-(2-(hydroxymethyl)-4-(methoxyimino)pyrrolidine-1-carbonyl)-2,3-dihydrobenzo[b][1,4]dioxin-5-yl)-2-methylbenzonitrile] had an IC50 at OTR of 6.63 nM.

As a reminder, the IC50 is the concentration at which inhibition is half-maximal. The low end stands for higher potency, the high end for lower potency. By clearance is commonly meant the rate of elimination divided by the concentration.
